Results from ChEMBL document CHEMBL1201861, “Genomics of Drug Sensitity in Cancer screening data, Wellcome Trust Sanger Institute”.

Legend:
COR-L279 = assay: SANGER: Inhibition of human COR-L279 cell growth in a cell viability assay.; assay type: functional, cell-based
CPC-N = assay: cells; assay type: functional, cell-based; conditions: Homo sapiens;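 also: growth inhibition of CPC-N cells, with a cell viability assay as the readout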
Description: SANGER: Inhibition of human CPC-N cell growth in a cell viability assay.

DU-145 = assay: cells; assay type: functional, cell-based, Homo sapiens; conditions: Homo sapiens, DU-145
Description: SANGER: Inhibition of human DU-145 cell growth in a cell viability assay.

HN = assay: cells; assay type: functional, cell-based, Homo sapiens; conditions: Homo sapiens, HN
Description: SANGER: Inhibition of human HN cell growth in a cell viability assay.

IST-SL2 = assay: cells; assay type: functional, cell-based; conditions: Homo sapiens;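 also: growth inhibition of human IST-SL2 cells, read out by a cell viability assay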
Description: SANGER: Inhibition of human IST-SL2 cell growth in a cell viability assay.

JIYOYE = assay: cells; assay type: functional, cell-based; conditions: Homo sapiens
Description: SANGER: Inhibition of human JiyoyeP-2003 cell growth in a cell viability assay.

KNS-81-FD = assay: cells; assay type: functional, cell-based, Homo sapiens; conditions: Homo sapiens, KNS-81-FD;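 also: growth inhibition of KNS-81-FD cells, read out with a cell viability assay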
Description: SANGER: Inhibition of human KNS-81-FD cell growth in a cell viability assay.

L-540 = assay: cells; assay type: functional, cell-based; conditions: Homo sapiens;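 also: growth inhibition of the human L-540 cell line, read out with a viability assay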
Description: SANGER: Inhibition of human L-540 cell growth in a cell viability assay.

LAMA-84 = assay: cells; assay type: functional, cell-based; conditions: Homo sapiens;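 also: growth inhibition of LAMA-84 cells, read out with a cell viability assay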
Description: SANGER: Inhibition of human LAMA-84 cell growth in a cell viability assay.

LAN-6 = assay: cells; assay type: functional, cell-based, Homo sapiens; conditions: Homo sapiens, LAN-6;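 also: growth inhibition of LAN-6 cells, determined with a cell viability assay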
Description: SANGER: Inhibition of human LAN-6 cell growth in a cell viability assay.

LB996-RCC = assay: cells; assay type: functional, cell-based; conditions: Homo sapiens
Description: SANGER: Inhibition of human LB996-RCC cell growth in a cell viability assay.

LU-165 = assay: cells; assay type: functional, cell-based; conditions: Homo sapiens
Description: SANGER: Inhibition of human LU-165 cell growth in a cell viability assay.

NALM-6 = assay: cells; assay type: functional, cell-based; conditions: Homo sapiens;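 also: growth inhibition of NALM-6 cells, read out with a cell viability assay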
Description: SANGER: Inhibition of human NALM-6 cell growth in a cell viability assay.

NCCIT = assay: SANGER: Inhibition of human NCCIT cell growth in a cell viability assay.; assay type: functional, cell-based
NCI-H1092 = assay: cells; assay type: functional, cell-based; conditions: Homo sapiens
Description: SANGER: Inhibition of human NCI-H1092 cell growth in a cell viability assay.

NCI-H1304 = assay: cells; assay type: functional, cell-based; conditions: Homo sapiens;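 also: growth inhibition of the cancer cell line, measured in a cell viability assay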
Description: SANGER: Inhibition of human NCI-H1304 cell growth in a cell viability assay.

NCI-H1417 = assay: cells; assay type: functional, cell-based; conditions: Homo sapiens;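 also: human NCI-H1417 cells, growth inhibition determined with a cell viability readout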
Description: SANGER: Inhibition of human NCI-H1417 cell growth in a cell viability assay.

NCI-H1436 = assay: cells; assay type: functional, cell-based; conditions: Homo sapiens;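 also: growth suppression of human NCI-H1436 cells, determined with a cell viability readout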
Description: SANGER: Inhibition of human NCI-H1436 cell growth in a cell viability assay.

NCI-H1648 = assay: cells; assay type: functional, cell-based, Homo sapiens; conditions: Homo sapiens, NCI-H1648;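 also: cell viability assay measuring inhibition of NCI-H1648 cell growth, from the Sanger screening data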
Description: SANGER: Inhibition of human NCI-H1648 cell growth in a cell viability assay.

NCI-H187 = assay: cells; assay type: functional, cell-based; conditions: Homo sapiens;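 also: growth inhibition of NCI-H187 cells, read out as cell viability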
Description: SANGER: Inhibition of human NCI-H187 cell growth in a cell viability assay.

NCI-H2141 = assay: cells; assay type: functional, cell-based; conditions: Homo sapiens;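 also: growth inhibition of human NCI-H2141 cells, read out with a cell viability assay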
Description: SANGER: Inhibition of human NCI-H2141 cell growth in a cell viability assay.

NCI-H2171 = assay: cells; assay type: functional, cell-based; conditions: Homo sapiens;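 also: growth inhibition of human NCI-H2171 cells, read out by a cell viability assay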
Description: SANGER: Inhibition of human NCI-H2171 cell growth in a cell viability assay.

NCI-H2405 = assay: cells; assay type: functional, cell-based, Homo sapiens; conditions: Homo sapiens, NCI-H2405;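 also: growth inhibition of the human cell line, read out with a cell viability assay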
Description: SANGER: Inhibition of human NCI-H2405 cell growth in a cell viability assay.

NCI-H345 = assay: cells; assay type: functional, cell-based; conditions: Homo sapiens;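 also: growth inhibition of NCI-H345 cells measured with a cell viability assay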
Description: SANGER: Inhibition of human NCI-H345 cell growth in a cell viability assay.

NCI-H524 = assay: cells; assay type: functional, cell-based; conditions: Homo sapiens;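 also: growth inhibition of human NCI-H524 cells, read out through a cell viability assay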
Description: SANGER: Inhibition of human NCI-H524 cell growth in a cell viability assay.

NCI-H716 = assay: cells; assay type: functional, cell-based; conditions: Homo sapiens;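 also: growth inhibition of human NCI-H716 cells, measured by a cell viability assay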
Description: SANGER: Inhibition of human NCI-H716 cell growth in a cell viability assay.

NCI-H748 = assay: cells; assay type: functional, cell-based; conditions: Homo sapiens;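 also: growth inhibition of NCI-H748 cells, measured by a cell viability assay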
Description: SANGER: Inhibition of human NCI-H748 cell growth in a cell viability assay.

NCI-H810 = assay: cells; assay type: functional, cell-based, Homo sapiens; conditions: Homo sapiens, NCI-H810;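 also: IC50 reflects inhibition of cancer cell line growth, read out with a cell viability assay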
Description: SANGER: Inhibition of human NCI-H810 cell growth in a cell viability assay.

NCI-H82 = assay: cells; assay type: functional, cell-based; conditions: Homo sapiens;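 also: growth inhibition of NCI-H82 cells, measured with a cell viability readout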
Description: SANGER: Inhibition of human NCI-H82 cell growth in a cell viability assay.

NCI-H889 = assay: cells; assay type: functional, cell-based; conditions: Homo sapiens;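 also: cell growth inhibition of the cell line, read out with a viability assay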
Description: SANGER: Inhibition of human NCI-H889 cell growth in a cell viability assay.

SNU-16 = assay: cells; assay type: functional, cell-based; conditions: Homo sapiens;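 also: growth inhibition of human SNU-16 cells, determined with a cell viability readout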
Description: SANGER: Inhibition of human NCI-SNU-16 cell growth in a cell viability assay.

NOMO-1 = assay: cells; assay type: functional, cell-based; conditions: Homo sapiens;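 also: growth inhibition of human NOMO-1 cells measured by a cell viability assay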
OAW-28 = assay: cells; assay type: functional, cell-based, Homo sapiens; conditions: Homo sapiens, OAW-28;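 also: growth inhibition of OAW-28 cells, read out with a cell viability assay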
Description: SANGER: Inhibition of human OAW-28 cell growth in a cell viability assay.

Panc1005 = assay: cells; assay type: functional, cell-based, Homo sapiens; conditions: Homo sapiens, Panc1005;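 also: growth inhibition of human PANC-10-05 cells, measured by a cell viability assay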
Description: SANGER: Inhibition of human PANC-10-05 cell growth in a cell viability assay.

RPMI-6666 = assay: cells; assay type: functional, cell-based; conditions: Homo sapiens
Description: SANGER: Inhibition of human RPMI-6666 cell growth in a cell viability assay.

RPMI 8402 = assay: SANGER: Inhibition of human RPMI-8402 cell growth in a cell viability assay.; assay type: functional, cell-based
SCLC-21H = assay: cells; assay type: functional, cell-based; conditions: Homo sapiens;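 also: growth inhibition of cultured human SCLC-21H cells, read out with a cell viability assay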
Description: SANGER: Inhibition of human SCLC-21H cell growth in a cell viability assay.

SJRH30 = assay: cells; assay type: functional, cell-based; conditions: Homo sapiens;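 also: growth inhibition of human SJRH30 cells, read out with a cell viability assay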
Description: SANGER: Inhibition of human SJRH30 cell growth in a cell viability assay.

SNU-C1 = assay: cells; assay type: functional, cell-based; conditions: Homo sapiens;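 also: growth inhibition of SNU-C1 human cells, read out by a cell viability assay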
Description: SANGER: Inhibition of human SNU-C1 cell growth in a cell viability assay.

SR = assay: cells; assay type: functional, cell-based; conditions: Homo sapiens
Description: SANGER: Inhibition of human SR cell growth in a cell viability assay.

SW872 = assay: cells; assay type: functional, cell-based, Homo sapiens; conditions: Homo sapiens, SW872;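 also: growth inhibition of SW872 cells, read out by a viability assay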
Description: SANGER: Inhibition of human SW872 cell growth in a cell viability assay.

SAOS-2 = assay: cells; assay type: functional, cell-based, Homo sapiens; conditions: Homo sapiens, SAOS-2;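 also: growth inhibition of human Saos-2 cells determined by a cell viability assay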
Description: SANGER: Inhibition of human Saos-2 cell growth in a cell viability assay.

23132-87 = assay: cells; assay type: functional, cell-based, Homo sapiens; conditions: Homo sapiens
Description: SANGER: Inhibition of human 23132-87 cell growth in a cell viability assay.

8505C = assay: cells; assay type: functional, cell-based, Homo sapiens; conditions: Homo sapiens, 8505C
Description: SANGER: Inhibition of human 8505C cell growth in a cell viability assay.

A704 = assay: cells; assay type: functional, cell-based, Homo sapiens; conditions: Homo sapiens, A704;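 also: growth inhibition of human A704 cells, read out with a cell viability assay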
Description: SANGER: Inhibition of human A704 cell growth in a cell viability assay.

ARH-77 = assay: cells; assay type: functional, cell-based; conditions: Homo sapiens;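 also: growth inhibition of ARH-77 cells, read out by a cell viability assay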
Description: SANGER: Inhibition of human ARH-77 cell growth in a cell viability assay.

BL-41 = assay: cells; assay type: functional, cell-based; conditions: Homo sapiens;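 also: growth inhibition of human BL-41 cells, read out with a cell viability assay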
Description: SANGER: Inhibition of human BL-41 cell growth in a cell viability assay.

CAL-148 = assay: cells; assay type: functional, cell-based; conditions: Homo sapiens
Description: SANGER: Inhibition of human CAL-148 cell growth in a cell viability assay.

CAL-33 = assay: cells; assay type: functional, cell-based, Homo sapiens; conditions: Homo sapiens, CAL-33;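 also: growth inhibition of CAL-33 cells, read out with a cell viability assay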
Description: SANGER: Inhibition of human CAL-33 cell growth in a cell viability assay.

CAL-62 = assay: cells; assay type: functional, cell-based, Homo sapiens; conditions: Homo sapiens, CAL-62;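 also: growth inhibition of CAL-62 cells, read out with a cell viability assay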
Description: SANGER: Inhibition of human CAL-62 cell growth in a cell viability assay.

TE-441-T = assay: cells; assay type: functional, cell-based; conditions: Homo sapiens
Description: SANGER: Inhibition of human TE-441-T cell growth in a cell viability assay.

CMK = assay: cells; assay type: functional, cell-based; conditions: Homo sapiens;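 also: growth inhibition of CMK cells, read out as cell viability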
Description: SANGER: Inhibition of human CMK cell growth in a cell viability assay.

NB7 = assay: cells; assay type: functional, cell-based; conditions: Homo sapiens;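 also: growth inhibition of NB7 cells, read out with a cell viability assay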
Description: SANGER: Inhibition of human NB7 cell growth in a cell viability assay.

Measured: IC50

C[C@]1(O)C[C@@H](c2nc(-c3ccc4ccc(-c5ccccc5)nc4c3)c3c(N)nccn32)C1 [LINSITINIB]
293 nM: SNU-C1
508 nM: SJRH30
999 nM: CMK
263 nM: LAN-6
1780 nM: NCI-H2171
165 nM: SAOS-2
not listed: NB7
> 2560 nM: all other assays above

Cc1cc(Nc2cc(N3CCN(C)CC3)nc(Sc3ccc(NC(=O)C4CC4)cc3)n2)n[nH]1 [TOZASERTIB]
720 nM: IST-SL2
352 nM: LAMA-84
1970 nM: SCLC-21H
25.5 nM: NALM-6
636 nM: SNU-16
1830 nM: NCI-H1304
1420 nM: CMK
641 nM: NCI-H187
511 nM: NCI-H524
246 nM: SR
104 nM: BL-41
not listed: DU-145 | HN | NCI-H2405 | NCI-H810 | OAW-28 | Panc1005 | SJRH30 | SAOS-2 | 23132-87 | 8505C | CAL-33 | CAL-62
> 2000 nM: all other assays above

CO[C@H]1C[C@@H]2CC[C@@H](C)[C@@](O)(O2)C(=O)C(=O)N2CCCC[C@H]2C(=O)O[C@H]([C@H](C)C[C@@H]2CC[C@@H](O)[C@H](OC)C2)CC(=O)[C@H](C)/C=C(\C)[C@@H](O)[C@@H](OC)C(=O)[C@H](C)C[C@H](C)/C=C/C=C/C=C/1C [SIROLIMUS]
21.8 nM: RPMI 8402
52.8 nM: ARH-77
10.4 nM: L-540
93.4 nM: LB996-RCC
87.3 nM: COR-L279
84.2 nM: CMK
24.4 nM: RPMI-6666
43.7 nM: BL-41
11.4 nM: SR
10.9 nM: JIYOYE
57.2 nM: NCI-H1304
0.846 nM: SW872
not listed: DU-145 | HN | NCI-H2405 | NCI-H810 | OAW-28 | Panc1005 | SJRH30 | SAOS-2 | 23132-87 | 8505C | CAL-33 | CAL-62
> 100 nM: all other assays above
